Data set [1] addresses T1, B1 bradykinin receptor (Homo sapiens, UniProt P46663).
T1 sequence (P46663 whole entry): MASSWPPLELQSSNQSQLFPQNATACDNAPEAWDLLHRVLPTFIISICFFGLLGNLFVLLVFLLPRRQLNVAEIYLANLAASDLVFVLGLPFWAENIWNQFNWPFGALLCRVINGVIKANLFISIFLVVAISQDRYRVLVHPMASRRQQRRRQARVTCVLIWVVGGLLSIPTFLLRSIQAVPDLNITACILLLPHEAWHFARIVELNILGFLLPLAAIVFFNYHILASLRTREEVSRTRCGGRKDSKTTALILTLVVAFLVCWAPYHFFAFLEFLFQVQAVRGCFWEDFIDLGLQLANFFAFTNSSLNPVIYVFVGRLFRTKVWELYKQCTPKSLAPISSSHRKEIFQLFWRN
In words: Binding affinity (radioligand) to human Bradykinin receptor B1 over-expressed in transgenic rats was determined by ex vivo receptor occupancy assay; value ranges from 0.1-0.2 nM.

The species named for data set [2] is Homo sapiens. As to the kind of experiment: Binding affinity to human plasma protein. Type of data set: cell-free.
The target of data set [3] is T2, B2 bradykinin receptor (Homo sapiens, UniProt P30411).
T2 sequence (P30411 whole entry): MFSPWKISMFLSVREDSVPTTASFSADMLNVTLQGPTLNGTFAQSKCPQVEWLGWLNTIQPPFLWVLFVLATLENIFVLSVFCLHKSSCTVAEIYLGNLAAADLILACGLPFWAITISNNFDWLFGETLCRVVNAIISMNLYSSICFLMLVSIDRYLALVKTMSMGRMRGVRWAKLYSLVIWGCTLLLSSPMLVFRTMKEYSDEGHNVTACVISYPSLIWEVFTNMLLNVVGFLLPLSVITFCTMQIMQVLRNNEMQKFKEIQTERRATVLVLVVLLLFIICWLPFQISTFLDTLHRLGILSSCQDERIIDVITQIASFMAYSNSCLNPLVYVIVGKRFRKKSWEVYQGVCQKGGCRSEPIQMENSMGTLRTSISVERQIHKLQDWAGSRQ
In words: Binding affinity to human Bradykinin receptor B2 over-expressed in transgenic rats was determined by ex vivo receptor occupancy assay.

Data set [4] deals with T1, B1 bradykinin receptor. In words: Binding affinity to human Bradykinin receptor B1 over-expressed in transgenic rats was determined by ex vivo receptor occupancy assay.
A short description of data set [5]: Partition coefficient (logP). Format: physicochemical. The note with it: octanol/water.
Data set [6] concerns the target T2, B2 bradykinin receptor. In words: Binding affinity of the [35S]- radiolabeled compound to human Bradykinin receptor B2 over-expressed in transgenic rats was determined by ex vivo receptor occupancy assay.
Data set [7] has as its target T1, B1 bradykinin receptor. As to the kind of experiment: Binding affinity of the [35S]- radiolabeled compound to human Bradykinin receptor B1 over-expressed in transgenic rats was determined by ex vivo receptor occupancy assay.
In data set [8] the target is T3, B1 bradykinin receptor (Canis lupus familiaris, UniProt Q9BDQ5).
T3 sequence (Q9BDQ5 whole entry): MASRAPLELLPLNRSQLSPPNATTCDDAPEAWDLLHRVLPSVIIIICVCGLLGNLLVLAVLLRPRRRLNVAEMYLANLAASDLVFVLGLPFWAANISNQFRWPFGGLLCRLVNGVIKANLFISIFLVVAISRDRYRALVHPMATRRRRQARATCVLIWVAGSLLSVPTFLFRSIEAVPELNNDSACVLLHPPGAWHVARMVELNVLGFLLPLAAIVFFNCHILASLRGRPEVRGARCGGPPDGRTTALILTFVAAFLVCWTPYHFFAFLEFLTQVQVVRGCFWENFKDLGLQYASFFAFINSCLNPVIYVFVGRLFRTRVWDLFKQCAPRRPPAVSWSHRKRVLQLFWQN
As to the kind of experiment: Binding affinity of the [35S]- radiolabeled compound to dog Bradykinin receptor B1.

The target of data set [9] is T4, B1 bradykinin receptor (Rattus norvegicus, UniProt P97583).
T4 sequence (P97583 whole entry): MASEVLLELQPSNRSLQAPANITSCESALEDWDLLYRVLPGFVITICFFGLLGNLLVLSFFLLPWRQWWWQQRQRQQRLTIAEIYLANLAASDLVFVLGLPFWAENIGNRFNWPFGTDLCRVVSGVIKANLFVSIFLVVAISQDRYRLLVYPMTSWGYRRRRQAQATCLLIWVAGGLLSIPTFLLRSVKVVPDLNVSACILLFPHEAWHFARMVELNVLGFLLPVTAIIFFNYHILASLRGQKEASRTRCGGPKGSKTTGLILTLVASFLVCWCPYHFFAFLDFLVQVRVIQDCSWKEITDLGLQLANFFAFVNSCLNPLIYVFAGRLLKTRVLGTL
In words: Binding affinity of the [35S]- radiolabeled compound to rat Bradykinin receptor B1.

For data set [10], the species on record is Homo sapiens. In words: Binding affinity of the [35S]- radiolabeled compound to human plasma protein. Format: cell-free.
Data set [11] has as its target T5, B1 bradykinin receptor (Oryctolagus cuniculus, UniProt P48748).
T5 sequence (P48748 whole entry): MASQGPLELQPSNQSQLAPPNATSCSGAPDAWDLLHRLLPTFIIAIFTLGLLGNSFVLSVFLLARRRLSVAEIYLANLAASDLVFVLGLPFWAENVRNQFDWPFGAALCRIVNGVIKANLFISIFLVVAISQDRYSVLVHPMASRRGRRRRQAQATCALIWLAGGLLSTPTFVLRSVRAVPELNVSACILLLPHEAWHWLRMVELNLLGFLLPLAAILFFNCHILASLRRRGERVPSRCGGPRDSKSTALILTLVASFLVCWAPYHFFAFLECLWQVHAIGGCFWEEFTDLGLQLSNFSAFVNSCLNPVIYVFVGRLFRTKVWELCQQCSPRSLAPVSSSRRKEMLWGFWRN
In words: Binding affinity of the [35S]- radiolabeled compound to rabbit Bradykinin receptor B1.

In data set [12] the target is T6, B1 bradykinin receptor (Homo sapiens) (UniProt P46663).
T6 sequence (whole entry): T1 sequence (P46663 whole entry)
In words: Maximum specific binding of the [35S]- radiolabeled compound to human Bradykinin receptor B1 expressed in CHO membranes was determined. Type of data set: cell membranes.

The target of data set [13] is T1, B1 bradykinin receptor. As to the kind of experiment: Antagonist activity against human Bradykinin receptor B1 was determined in a fluorescence imaging plate reader assay. Type of data set: functional.
The nature of data set [14]: Half-life of the [35S]- radiolabeled compound. Type of data set: ADME.
Data set [15] deals with T1, B1 bradykinin receptor. In words: Equilibrium dissociation constant of the [35S]- radiolabeled compound against human Bradykinin receptor B1 expressed in CHO membranes was determined. Type of data set: cell membranes.

Turning to `[3H][C@@]1(C(=O)NCC(=O)N[C@@H](Cc2ccccc2)C(=O)N[C@@H](CO)C(=O)N2CCC[C@H]2C(=O)N[C@@H](CC(C)C)C(=O)O)CCCN1C(=O)[C@]1([3H])CCCN1C(=O)[C@H](CCCN=C(N)N)NC(=O)[C@@H](N)CCCCN`, in data set [1], the Ki is below 0.2 nM.
`O=C(C[C@@H]1C(=O)Nc2ccccc2N1S(=O)(=O)c1ccc2ccccc2c1)NCCc1ccc(-c2ncc[nH]2)cc1` had a PPB in data set [2] of 98.5%. The inhibition constant Ki in data set [3] is above 10000 nM; in data set [4], 0.07 nM. Further, the logP in data set [5] was found to be 3.32.
Take `O=C(C[C@@H]1C(=O)Nc2ccccc2N1S(=O)(=O)c1ccc2ccccc2c1)NCCc1ccc(C2=NCCN2)cc1`: the Ki in data set [6] is above 10000 nM; in [7], 0.02 nM; in [8], 0.5 nM; in data set [9], 34 nM; in data set [11], 0.05 nM. The PPB in data set [10] came to 79.4%. The same compound showed a Bmax (fM mg-1 protein) in data set [12] of 480. This compound also gave an IC50 in data set [13] of 0.04 nM. Besides, in data set [14], the half-life is around 3.33 h. The compound also came in with a logP in data set [5] of 0.25. Besides, in data set [15], the affinity, expressed as Kd, was 0.015 nM.
`O=C(C[C@@H]1C(=O)Nc2ccc(Cl)cc2N1S(=O)(=O)c1ccc2ccccc2c1)NCCc1ccc(C2=NCCN2)cc1`: the PPB in data set [2] stood at 93.6%. The Ki in data set [3] was above 10000 nM; in data set [4], 0.01 nM. In addition, in data set [5], the logP turned out to be 1.
In the same order, the values of `O=C(C[C@@H]1C(=O)Nc2ccccc2N1S(=O)(=O)c1ccc(Cl)c(Cl)c1)NCCc1ccc(C2=NCCN2)cc1` are 36%, above 10000 nM, 0.03 nM and 0.48.
On to `O=C(C[C@@H]1C(=O)Nc2ccccc2N1S(=O)(=O)c1ccc(Cl)c(Cl)c1)NCCc1ccc(-n2ccnc2)cc1`, for which the Ki is above 10000 nM in [3] and 1.09 nM in data set [4]. Further, the logP in data set [5] was determined as 3.35.
Regarding `O=C(C[C@@H]1C(=O)Nc2ccc(Cl)cc2N1S(=O)(=O)c1ccc2ccccc2c1)NCCc1ccc(-c2ncc[nH]2)cc1`, the Ki in data set [3] is above 10000 nM; in data set [4] it was 0.07 nM. Moreover, the logP in [5] turned out to be 3.41.
In the case of `CN1CCN=C1c1ccc(CCNC(=O)C[C@@H]2C(=O)Nc3ccc(Cl)cc3N2S(=O)(=O)c2ccc3ccccc3c2)cc1`, the PPB in data set [2] is 91.7%. For the same compound, the Ki was above 10000 nM in [3] and 0.02 nM in data set [4]. The logP in data set [5] turned out to be 0.53.
`O=C(C[C@@H]1C(=O)Nc2ccccc2N1S(=O)(=O)c1ccc(Cl)c(Cl)c1)NCCc1ccc(-n2cnnc2)cc1` yielded a PPB in data set [2] of 82.5%. The Ki in [3] is above 10000 nM; in data set [4], 3.73 nM. The compound further showed a logP in data set [5] of 2.35.

As usually defined, the Ki is a measure of affinity in units of concentration, obtained from inhibition or displacement. A lower Ki goes with a stronger hold on the target. As a reminder, the logP is a log measure of how a compound divides between an organic and an aqueous phase. In general, IC50 refers to the concentration needed to halve the response being measured. As a reminder, the half-life is the time in which the quantity being followed falls by half. The low end stands for fast loss, the high end for slow loss. What is called Kd is the constant that tells how readily two partners part at equilibrium.

The values are drawn from ChEMBL document CHEMBL1138721, “Development of an efficient and selective radioligand for bradykinin B1 receptor occupancy studies” (Bioorg Med Chem Lett, 2004).
